Measured values: US20030157072A1, “Nusap, a novel gene encoding a tissue-specific nuclear protein, useful as a diagnostic tool and therapeutic agent” (priority 2003, published 2003)

Experiments:
[1] = tested on: microtubules (α-tubulin) / GFP-tagged NuSAP; assay: Immunofluorescence localization of GFP-tagged NuSAP in transfected COS-1 cells; settings: for distribution of NuSAP in the nucleoli during interphase: COS-1 cells in interphase; for distribution of NuSAP and α-tubulin in mitotic cells: mitotic COS-1 cells, nocodazole 10 μM for 1 hour, taxol 5 μM for 1 hour
nusap gene expression = assay: Northern analysis of nusap gene expression in MC3T3-E1 cells; type: cell-based, mouse
Description: FIG. 2 represents a Northern blot analysis showing nusap gene expression in sub-confluent cultures of MC3T3-E1 cells after treatment with vehicle or 1,25(OH)2D3 (10^−8 M) for 24 hours. The size (kb) of the three transcripts is indicated.
(§1) Northern blot analysis of nusap expression in hydroxyurea treated (1 mM) MC3T3-E1 cells. Cells were harvested at the indicated time points (minutes) after treatment. The different cell cycle phases were assigned based on the RNA levels of histone H4, a S-phase marker. The blots were hybridized with the following cDNA probes: human histone H4, pFO002; and a 0.8 kb NuSAP BglII/AspI restriction fragment. The 18S cDNA probe was used as a control to assess equal loading.
(§2) Growth arrest of MC3T3-E1 cells by serum starvation was accomplished by changing complete medium (10% FCS) to medium containing 0.1% FCS in subconfluent cultures. The quiescent cells were released from growth arrest by adding complete medium (10% FCS), whereafter cells were harvested at the indicated time points.
(§3) Total cellular RNA was extracted from cell cultures using TriZol LS. Foetal mice and soft tissues from adult mice (C57BL/6; 8 wk old) were directly homogenized in TriZol (GIBCO BRL), while femurs and tibias were ground to a fine powder prior to homogenization, followed by total cellular RNA extraction. […]

[2] = tested on: histone H4 gene expression; assay: Northern analysis of histone H4 RNA levels in MC3T3-E1 cells; type: cell-based, mouse; settings: 1 mM, within 45 minutes of treatment
Description: as §1, §2, §3

[3] = tested on: mouse osteoblastic MC3T3-E1 cells; assay: [3H]-thymidine incorporation, proliferation of MC3T3-E1 cells; type: cell-based; settings: varying doses, 24 and 48 h, versus vehicle
Description: (a) The proliferation of MC3T3-E1 cells was analyzed after treatment for 24 and 48 h with varying doses of 1,25(OH)2D3 by monitoring [^3H]-thymidine incorporation. Data represent mean±SD of six replicates of a representative experiment. Values of vehicle (ethanol) treated cells were taken as 100%. (*P<0.001; versus vehicle, t test) All culture reagents, unless otherwise mentioned, were obtained from GIBCO BRL (Life Technologies, Grand Island, N.Y.). Murine osteoblast-like MC3T3-E1 cells (Sudo et al. (1983). J. Cell Biol. 96:191-198) were purchased from Riken Cell Bank (H. Kodama, Japan), and maintained in αMEM supplemented with 10% heat-inactivated FCS and penicillin-streptomycin (100 U/ml and […], respectively). Sub-confluent MC3T3-E1 cell cultures are defined to be in the proliferation state, while confluent and mineralising cells have entered the differentiation stage. COS-1 and NIH3T3 cells (American Type Culture Collection, Manassas, Va.) were cultured respectively in Dulbecco's modified eagle medium (hereinafter DME) and DME-F12, plus 10% heat-inactivated FCS. For NIH3T3 cells, the medium was supplemented with glutamax (2 mM) and glucose (4.5 g/l). Cultures were grown at 37° C. in a humidified atmosphere containing 5% CO2 in air. […] Significant effects were already observed after 24 hours and this inhibition became more pronounced with increasing time. […]

[4] = tested on: DNA synthesis (BrdUrd incorporation); assay: BrdUrd immunostaining in transfected COS-1 cells; type: cell-based; settings: 20 μg/ml for several hours
Description: […] […] C is the merger of A and B. In some cells, BrdUrd incorporation is distinctly aggregated (E), and these sites overlap with NuSAP-GFP (D) and F (which is the merger of D and E).
Alternatively, cells were fixed and permeabilized in 0.4% glutaraldehyde/0.5% Triton X100/PBS for 15 minutes at room temperature. After incubation in 0.5 mg NaBH4/ml PBS (10 minutes), and blocking in 5% BSA/PBS (10 minutes), cells were incubated with primary antibodies for 1 h. Cells were washed and after incubation with 50% normal serum (Dako) (10 minutes), cells were incubated with secondary antibodies conjugated to Alexa-488 or -546 dye (Molecular Probes) (1 hour) and finally mounted using Dako mounting medium. Antibodies and normal serum were diluted in 0.5% Tween20/PBS. Analysis was done on a Nikon inverted microscope Diaphot 300 (Plan Apo 60/1.40 oil) connected to a Bio-Rad MRC1024 confocal microscope and images were captured by LaserSharp (version 3.2) and processed using Adobe Photoshop 5.5 (Adobe Systems Inc., San Jose Calif.). The images showing a-tubulin localization were taken using a Leitz DM microscope and were recorded using a cooled charge-coupled device camera (Photometrics Inc., Tucson, Ariz.) and IP-Lab software. […]

Q: `CC(=O)O[C@H]1C(=O)[C@@]2(C)[C@H]([C@H](OC(=O)c3ccccc3)[C@]3(O)C[C@H](OC(=O)[C@H](O)[C@@H](NC(=O)c4ccccc4)c4ccccc4)C(C)=C1C3(C)C)[C@]1(OC(C)=O)CO[C@@H]1C[C@@H]2O` [taxol] was tested. Which “distribution of NuSAP in the nucleoli during interphase” value [1] did it give?
A: Neither nocodazole nor taxol treatment affected

Q: And the “distribution of NuSAP and α-tubulin in mitotic cells” value [1]?
A: resulted in NuSAPs translocation to these structures

Q: What does the source list for `NC(=O)NO` [hydroxyurea]?
A: nusap gene expression (RNA level) (nusap gene expression; MC3T3-E1 cells, 1 mM, within 45 minutes of treatment): markedly down-regulated; histone H4 RNA levels [2]: undetectable

Q: For `COC(=O)Nc1nc2ccc(C(=O)c3cccs3)cc2[nH]1` [nocodazole], which “distribution of NuSAP in the nucleoli during interphase” value [1] is on record?
A: Neither nocodazole nor taxol treatment affected

Q: And the “distribution of NuSAP and α-tubulin in mitotic cells” value [1]?
A: NuSAP and α-tubulin redistributed throughout the cell

Q: Which results are given for `C=C1/C(=C\C=C2/CCC[C@]3(C)[C@@H]([C@H](C)CCCC(C)(C)O)CC[C@@H]23)C[C@@H](O)C[C@@H]1O` [1α,25(OH)2D3, 1α,25-dihydroxyvitamin D3]?
A: nusap gene expression (Northern analysis) (nusap gene expression; sub-confluent MC3T3-E1 cells, 10^-8 M for 24 hours versus vehicle): inhibition of nusap gene expression; proliferation measured by [3H]-thymidine incorporation [3]: inhibited the proliferation of these cells

Q: With `C[C@@]1(CO)[C@H](O)CC[C@@]2(C)[C@H]1CC[C@H]1C[C@@H]3C[C@@]12CC[C@]3(O)CO` [aphidicolin] as the compound, how does the “immunostaining for BrdUrd” value [4] read?
A: loss of immunostaining for BrdUrd
